Test results reported in EP0508725A1, “Novel process for the preparation of 8a-aza-8a-homoerythromycin cyclic iminoethers” (MERCK & CO. INC., priority 1991, dated 1992).

How the values were obtained:
Test in all cases: MIC, liquid turbidimetric microtiter method in brain heart infusion broth
Type in all cases: cell-based
[1] = system: Enterococcus faecalis MB 5407
Source text: (§1) The antibacterial activities of compound (VII) against a panel of aerobic Gram positive and negative bacteria is shown in the following Table. The assay employs a liquid turbidimetric microtiter method for the determination of the minimum inhibitory concentration (MIC) in brain heart infusion broth. […] The MIC is generally not an absolute value but rather a concentration ranged that falls within a two-fold dilution limit. Generally twelve two-fold dilutions of the test compound are employed with the initial concentration set at 128 mcg/ml.

[2] = system: Enterococcus faecium MB 5416
Source text: as §1

[3] = system: Escherichia coli MB 2884
Source text: as §1

[4] = system: Escherichia coli MB 4926
Source text: as §1

[5] = system: Klebsiella pneumoniae MB 4005
Source text: as §1

[6] = system: Pseudomonas stutzeri MB 1231
Source text: as §1

[7] = system: Staphylococcus aureus MB 2865
Source text: as §1

[8] = system: Staphylococcus epidermidis MB 5414
Source text: as §1

[9] = system: Staphylococcus haemolyticus MB 5412
Source text: as §1

[10] = system: Steptococcus viridans CL 2943
Source text: as §1

[11] = system: Streptococcus agalactiae CL 1343
Source text: as §1

[12] = system: Streptococcus pneumoniae CL 2883
Source text: as §1

[13] = system: Streptococcus pyogenes MB 2874
Source text: as §1

[14] = system: Streptococcus pyogenes MB 5406
Source text: as §1

[15] = system: Yersinia enterocoltica CL 1598
Source text: as §1

MIC Values [1]: 32 mcg/m
MIC Values [2]: 8 mcg/m
MIC Values [3]: 128 mcg/m
MIC Values [4]: 8 mcg/m
MIC Values [5]: >128 mcg/m
MIC Values [6]: 0.5 mcg/m
MIC Values [7]: 16 mcg/m
MIC Values [8]: 32 mcg/m
MIC Values [10]: 16 mcg/m
MIC Values [11]: 1 mcg/m
MIC Values [12]: 0.5 mcg/m
MIC Values [13]: 1 mcg/m
MIC Values [14]: 128 mcg/m
MIC Values [15]: 128 mcg/m
Compound: CC[C@H]1OC(=O)[C@H](C)[C@@H](O[C@H]2C[C@@](C)(OC)[C@@H](O)[C@H](C)O2)[C@H](C)[C@@H](O[C@@H]2O[C@H](C)C[C@H](N(C)C)[C@H]2O)[C@](C)(O)C[C@@H](C)N=C2O[C@@]1(C)[C@H](O)[C@H]2C [Compound (VII), 9-Deoxo-12-deoxy-9,12-epoxy-8a,9-didehydro-8a-aza-8a-homoerythromycin A]
MIC Values [9]: 8 mcg/m
